Measurements taken from patent US20260285918A1, “PEPTIDE FOR INHIBITING PROTEIN AGGREGATION AND PROTECTING PROTEIN ACTIVITY” (GWANGJU INSTITUTE OF SCIENCE AND TECHNOLOGY, priority 2023, published 2026).

What was measured:
[1] = test system: LDH (Lactate dehydrogenase); test: LDH activity protection with temperature and time (storage); assay type: biochemical; details: mass ratio 1:50
Procedure: CAHS motif 1 124-142, a stabilizer provided by the present invention, was mixed with LDH (lactate dehydrogenase), a target protein candidate for activity protection experiments, at a mass ratio of 1:50. The LDH protein activity was tested under various temperature and time conditions to determine the degree of protein activity protection.
Specifically, LDH protein activity was tested at temperatures of −20° C., 20° C., and 37° C., and at time intervals of 0, 1, 2, and 4 weeks.

[2] = test system: LDH (Lactate dehydrogenase); test: Inhibition of LDH aggregation (absorption at 340 nm, light scattering) after dehydration-rehydration and freeze-thaw
Excerpt: In other words, protein aggregation is the main cause of loss of protein activity. Protein aggregation is induced during the process of freezing and thawing (freeze and thaw) or in a water-free environment (dehydration), which causes loss of protein activity.

[3] = test system: LDH (Lactate dehydrogenase); test: LDH activity protection after dehydration-rehydration and freeze-thaw; assay type: biochemical; details: for LDH activity protection rate: motif added at up to 1/10 of the BSA amount
Excerpt: Specifically, as illustrated in FIG. 6(c), considering the charge, hydrophobicity, and hydrophilicity of each amino acid in the CAHS motif 1 124-142 sequence, Y (Tyr), Q (Gln), E (Glu), V (Val), R (Arg), and L (Leu) in the amino acid sequence of CAHS motif 1, represented by SEQ ID NO: 2, were each mutated to alanine at one site.

[4] = Solubility comparison after dialysis; assay type: physicochemical; details: 100 μM, dialysed at 4° C. for 18 hours in 20 mM potassium phosphate, 150 mM NaCl, pH 7.0
Procedure: First, CAHS motif 1 124-142 was obtained via peptide synthesis. CAHS motif 1 124-142 and the entire CAHS protein 1-229 were each dialysed at 4° C. for 18 hours in a buffer containing 20 mM potassium phosphate, 150 mM NaCl, pH 7.0, at a concentration of 100 μM, to compare their solubility.

| Substance | LDH activity preservation on storage ([1]; 20° C., 1 to 4 weeks) | LDH activity preservation on storage ([1]; 37° C., 1 to 4 weeks) | LDH activity preservation on storage ([1]; all conditions: −20° C., 20° C., 37° C., 0, 1, 2, 4 weeks) | LDH activity preservation on storage ([1]; −20° C., 1 to 4 weeks) | LDH aggregation ([2]; dehydration-rehydration) | LDH aggregation ([2]; freeze-thaw) | LDH activity protection compared between excipients [3] | LDH activity protection rate [3] | solubility [4] |
| --- | --- | --- | --- | --- | --- | --- | --- | --- | --- |
| CAHS motif 1 124-142: 19-mer peptide, positions 124 to 142 of the CAHS protein, YRKQQEVEADKIRKELEKQ, obtained via peptide synthesis | well preserved | well preserved | effectively preserve protein activity under all temperature and time conditions | well preserved | reduced aggregation by more than half | effectively inhibits the aggregation of LDH | best protected the activity of the protein | 70-100% | excellent solubility in water |
| Bovine Serum Albumin [BSA, reference compound] | – | – | – | – | barely prevented aggregation | – | – | 50-60% | – |
